F/C=C/C(F)(F)F [trans-1,3,3,3-tetrafluoropropene]
Conditions	mass density [kg/m3]
302.78 K, 433.9 kPa, Gas, isochoric method	22.222
303.13 K, 802 kPa, Liquid, Vibrating tube method	1145.9
303.13 K, 1676 kPa, Liquid, Vibrating tube method	1151.1
303.13 K, 4747 kPa, Liquid, Vibrating tube method	1167.3
303.13 K, 7769 kPa, Liquid, Vibrating tube method	1181.3
303.13 K, 8772 kPa, Liquid, Vibrating tube method	1185.8
303.14 K, 2678 kPa, Liquid, Vibrating tube method	1156.8
303.14 K, 3716 kPa, Liquid, Vibrating tube method	1162.3
303.14 K, 5757 kPa, Liquid, Vibrating tube method	1172.2
303.14 K, 6764 kPa, Liquid, Vibrating tube method	1176.9
303.14 K, 9773 kPa, Liquid, Vibrating tube method	1190
303.14 K, 10775 kPa, Liquid, Vibrating tube method	1194.1
303.14 K, 11778 kPa, Liquid, Vibrating tube method	1197.9
303.14 K, 12794 kPa, Liquid, Vibrating tube method	1201.7
303.14 K, 13809 kPa, Liquid, Vibrating tube method	1205.3
303.14 K, 14819 kPa, Liquid, Vibrating tube method	1209.1
303.14 K, 15824 kPa, Liquid, Vibrating tube method	1212.5
303.14 K, 16838 kPa, Liquid, Vibrating tube method	1216
303.14 K, 17845 kPa, Liquid, Vibrating tube method	1219.4
303.14 K, 18856 kPa, Liquid, Vibrating tube method	1222.6
303.14 K, 19875 kPa, Liquid, Vibrating tube method	1225.8
303.14 K, 20888 kPa, Liquid, Vibrating tube method	1228.8
303.14 K, 21899 kPa, Liquid, Vibrating tube method	1232
303.14 K, 22909 kPa, Liquid, Vibrating tube method	1234.9
303.14 K, 23916 kPa, Liquid, Vibrating tube method	1238
303.14 K, 24920 kPa, Liquid, Vibrating tube method	1240.8
303.14 K, 25928 kPa, Liquid, Vibrating tube method	1243.5
303.14 K, 26942 kPa, Liquid, Vibrating tube method	1246.4
303.14 K, 27943 kPa, Liquid, Vibrating tube method	1249.1
303.14 K, 28955 kPa, Liquid, Vibrating tube method	1251.6
303.14 K, 29958 kPa, Liquid, Vibrating tube method	1254.5
303.14 K, 30966 kPa, Liquid, Vibrating tube method	1256.7
303.15 K, 31972 kPa, Liquid, Vibrating tube method	1259.5
303.15 K, 32984 kPa, Liquid, Vibrating tube method	1262
303.15 K, 33993 kPa, Liquid, Vibrating tube method	1264.4
312.59 K, 574.7 kPa, Gas, isochoric method	28.571
312.6 K, 574.7 kPa, Gas, isochoric method	28.571
312.61 K, 397.1 kPa, Gas, isochoric method	19.231
312.61 K, 397.2 kPa, Gas, isochoric method	19.231
312.72 K, 168.6 kPa, Gas, isochoric method	7.634
312.76 K, 451.9 kPa, Gas, isochoric method	21.739
312.76 K, 452 kPa, Gas, isochoric method	21.739
312.8 K, 74.3 kPa, Gas, isochoric method	3.311
312.84 K, 268.5 kPa, Gas, isochoric method	12.5
313.13 K, 630.3 kPa, Gas, isochoric method	32.258
313.13 K, 630.4 kPa, Gas, isochoric method	32.258
313.14 K, 775 kPa, Liquid, Vibrating tube method	1109.9
313.14 K, 1656 kPa, Liquid, Vibrating tube method	1116.2
313.14 K, 2657 kPa, Liquid, Vibrating tube method	1122.9
313.14 K, 3683 kPa, Liquid, Vibrating tube method	1129.4
313.14 K, 5739 kPa, Liquid, Vibrating tube method	1141.4
313.14 K, 6749 kPa, Liquid, Vibrating tube method	1146.8
313.14 K, 7763 kPa, Liquid, Vibrating tube method	1152.1
313.14 K, 8784 kPa, Liquid, Vibrating tube method	1157.1
313.14 K, 9798 kPa, Liquid, Vibrating tube method	1161.9
313.14 K, 10800 kPa, Liquid, Vibrating tube method	1166.5
313.14 K, 11816 kPa, Liquid, Vibrating tube method	1170.9
313.14 K, 12819 kPa, Liquid, Vibrating tube method	1175.2
313.14 K, 13831 kPa, Liquid, Vibrating tube method	1179.3
313.14 K, 14845 kPa, Liquid, Vibrating tube method	1183.4
313.14 K, 15848 kPa, Liquid, Vibrating tube method	1187.2
313.14 K, 16855 kPa, Liquid, Vibrating tube method	1191.1
313.14 K, 18874 kPa, Liquid, Vibrating tube method	1198.3
313.14 K, 19890 kPa, Liquid, Vibrating tube method	1201.9
313.14 K, 20909 kPa, Liquid, Vibrating tube method	1205.3
313.14 K, 21923 kPa, Liquid, Vibrating tube method	1208.7
313.14 K, 22937 kPa, Liquid, Vibrating tube method	1212
313.14 K, 23947 kPa, Liquid, Vibrating tube method	1215.2
313.14 K, 25962 kPa, Liquid, Vibrating tube method	1221.3
313.14 K, 26971 kPa, Liquid, Vibrating tube method	1224.3
313.14 K, 28984 kPa, Liquid, Vibrating tube method	1230.1
313.15 K, 4723 kPa, Liquid, Vibrating tube method	1135.7
313.15 K, 17865 kPa, Liquid, Vibrating tube method	1194.7
313.15 K, 24948 kPa, Liquid, Vibrating tube method	1218.2
313.15 K, 27973 kPa, Liquid, Vibrating tube method	1227.2
313.15 K, 30002 kPa, Liquid, Vibrating tube method	1232.9
313.15 K, 31006 kPa, Liquid, Vibrating tube method	1235.7
313.15 K, 32010 kPa, Liquid, Vibrating tube method	1238.4
313.15 K, 33010 kPa, Liquid, Vibrating tube method	1241
313.15 K, 34013 kPa, Liquid, Vibrating tube method	1243.6
323.1 K, 76.8 kPa, Gas, isochoric method	3.311
323.1 K, 278.4 kPa, Gas, isochoric method	12.346
323.1 K, 470.5 kPa, Gas, isochoric method	21.739
323.11 K, 174.6 kPa, Gas, isochoric method	7.634
323.11 K, 413.3 kPa, Gas, isochoric method	19.231
323.11 K, 413.4 kPa, Gas, isochoric method	19.231
323.11 K, 658.4 kPa, Gas, isochoric method	32.258
323.12 K, 836.8 kPa, Gas, isochoric method	43.478
323.14 K, 1009 kPa, Liquid, Vibrating tube method	1071.8
323.14 K, 1595 kPa, Liquid, Vibrating tube method	1077.1
323.14 K, 2609 kPa, Liquid, Vibrating tube method	1085.6
323.14 K, 3638 kPa, Liquid, Vibrating tube method	1093.6
323.14 K, 4686 kPa, Liquid, Vibrating tube method	1101.1
323.14 K, 5705 kPa, Liquid, Vibrating tube method	1108
323.14 K, 6730 kPa, Liquid, Vibrating tube method	1114.5
323.14 K, 7748 kPa, Liquid, Vibrating tube method	1120.7
